Test results reported in patent US11154551B2, “HDAC1,2 inhibitors and methods of using the same” (UNIVERSITY OF UTAH RESEARCH FOUNDATION, priority 2014, dated 2021).
Entries after “also recorded” stand apart in the source; their conditions may differ.

Key:
[1] = test system: Karpas-422 and SUDHL4 cells; experiment: Western blot of acid-extracted histones (H4K91ac, H4K16ac, monoubiquitinated H4); assay type: cell-based, human; conditions: for monoubiquitinated form of H4 after doxorubicin: 48 h pretreatment, then 50 nM doxorubicin 4 h or 8 h
Experimental: Western analysis was performed with anti-BBAP antibody and histone H3 was used as a loading control. Whole cell lysate of HeLa cells was prepared following transfection of cells with either non-targeting or two different BBAP siRNAs. These extracts served as negative controls for the signal from BBAP antibody. (B): SUDHL4 and Karpas-422 cells were treated with DMSO or 2 μM ACY-957 for 48 hr prior to chromatin extraction. Western analysis was done using anti-H4K91ac or anti-H4K16ac and histone H4 served as a loading control. (C): HeLa cells were transfected with either wild type H4 or H4K91R mutant constructs for 65 hours prior to extraction of histones by trichloroacetic acid. Western blot analysis was performed with anti-FLAG antibody. (D): SUDHL4 cells and Karpas-422 were treated with DMSO or 2 μM ACY-957 for 24 hours and histones were extracted by TCA precipitation. Western blotting with anti-H4 was performed to detect H4 and monoubiquitylated H4. (E): SUDHL4 cells and Karpas-422 were treated with DMSO or 2 μM ACY-957 for 48 hours and treated with 50 nM doxorubicin for 4 hr or 8 hr prior to histone extraction. Histones were extracted by TCA precipitation and western blotting with anti-H4 was performed to detect H4 and monoubiquitinated H4.
Histone Extraction by Trichloroacetic Acid. DLBCL cells were treated with ACY957 in 25 cm^2 flasks. Following treatment, cells were pelleted, washed with PBS and the pellet was re-suspended in 400 μl of lysis buffer with protease inhibitors (200 μl 0.5M HEPES.KOH, pH 7.9, 15 μl 1M MgCl2, 50 μl 2M KCl, 50 μl 0.1M DTT, 100 μl 0.4M NEM, 10 μl 1000× Aprotinin/Leupeptin, 10 μl 1000× Pepstatin A, and water to a total volume of 10 m L plus Roche protease inhibitor cocktail). To the cell suspension, a final concentration of 0.2M sulfuric acid was added and samples were sonicated twice using the Fisher FB120 sonicator at amplitude of 50% and with 5 pulses. After sonication, proteins were extracted for 30 minutes at 4° C. with end over end rotation. Samples were then centrifuged at 13,000 rpm for 10 minutes at 4° C. and histones were precipitated with a 20% final concentration of trichloroacetic acid and incubated on ice for 30 minutes or moved directly to −80° C. overnight. Following precipitation, samples were centrifuged again for 10 minutes and the resulting pellet was washed with cold acidified acetone (acetone+0.05N HCl). The histone pellets were centrifuged at the same settings but for 5 minutes then washed again with cold acetone. After this wash the pellets were centrifuged for another 5 minutes and the acetone was discarded. Pellets were dried in an incubator at 37° C. for 5 minutes then re-suspended in 50 μl 2×SDS sample buffer+β-mercaptoethanol and 8 μl 1M Tris HCl pH 8 to neutralize. The samples were then boiled for 8 minutes at 95° C. and if there was still visible pellet they were either boiled longer, sonicated, had more sample buffer added or a combination thereof.
We treated Karpas-422 or SUDHL4 cells with DMSO or ACY-957 for 48 h prior to the incubation for 4 h or 8 h in the presence of doxorubicin.

Karpas-422 cells = experiment: 53BP1 and γH2AX foci formation after doxorubicin; assay type: cell-based, human; conditions: 24 h pretreatment
Experimental: After 4 h or 8 h of doxorubicin treatment, cells were fixed and immunofluorescence staining was performed with anti-γH2AX and anti-53BP1 antibodies. Cells shown were representative images based on the quantitation. Merge was the overlay of γH2AX and 53BP1 pictures. (B) and (C): Graphs depicted the percentage of cells with 53BP1 foci present at γH2AX containing break sites and the percentages of cells with γH2AX foci.
(§1) Immunofluorescence. Cells were fixed in either 10% formalin or methanol-acetone (1:1) for 10 min at −20*C. The cells were then permeabilized with 0.5% Triton-X-100 in PBS for 5 min at room temperature (RT), blocked in 10% normal goat serum (Sigma) for 30 min and stained with primary antibody for 1 h at RT. Cells were incubated with secondary antibody (anti-mouse or anti-rabbit IgG, Alexa Fluor 488/546) at a 1:600 dilution for 45 min at RT, and counterstained with Hoechst 33342 (Sigma) at 1:1000 dilution to visualize the nuclei. Images were captured using Zeiss Axioskop mot plus microscope with a 40× lens and analyzed using the AxioVision software.
To test this possibility, we treated DLBCL cells with DMSO or ACY957 for 24 h prior to a low dose of doxorubicin (50 nM) treatment. We examined γH2AX and 53BP1 foci formation at 4 h or 8 h post-doxorubicin treatment using immunofluorescence.
The percentage of cells containing 0, 1-5, 6-10 and greater than 10 γH2AX and 53BP1 foci were determined in at least 100 cells from three independent experiments.

[2] = test system: SupB15 (Ph+PreB-ALL) cells; experiment: γH2AX immunofluorescence; assay type: cell-based, human; conditions: 2 μM, 48 hours
Experimental: SupB15 cells were treated with 2 μM ACY1035, ACY1071, ACY957, or solvent (DMSO) for 48 hours. (A) Immunofluorescence with γH2AX was performed on treated SupB15 cells. The number of γH2AX foci was counted in around 100 cells for each treatment and classified into cells with no foci, 1-5, 6-10, and greater than 10 foci. (B) SupB15 cells treated with DMSO or ACY1035 for 48 hours were tested via neutral comet assay to measure the amount of double-strand breaks (DSBs), indicated by the tail.
BCR-ABL promotes DNA repair to prevent DNA damage accumulation in Philadelphia chromosome-positive (Ph+) leukemia cells. To examine the effect of various HDAC1,2-selective inhibitors on DNA repair and DNA damage response in Pre-B-ALL cells that express BCR-ABL, SupB15 (Ph+PreB-ALL) cells were treated with 2 μM ACY1035 or 2 μM ACY1071 or 2 μM ACY957 for 48 hours.

[3] = test system: Hdac1,2 or Hdac3 knockout cell lines; experiment: Western blot of H4K5ac in conditional Hdac1,2 or Hdac3 knockout cells; assay type: cell-based, mouse
Experimental: For IC50 determination, recombinant HDAC enzymes were treated with HDAC1,2 or HDAC3 inhibitors in in vitro HDAC assays. (B). Western blots for H3K23ac using extracts from Pre-B-ALL SupB15 cells treated with increasing dose of HDAC1,2 inhibitor (ACY1035). (C). Hdac1^FI/FI, 2^FI/FI cells were infected with Ad-Cre virus to delete HDAC1 and HDAC2 (HDAC1,2 null) or uninfected (WT). (D). Hdac3^FI/FI cells were either uninfected (WT) or infected with Ad-Cre virus to delete Hdac3.

[4] = test system: non-transformed, mouse bone marrow Pro-B derived Baf3 cells or cord blood stem cells; experiment: cell death in non-transformed cells; assay type: cell-based; conditions: 2 μM, within 72 hr
From the text: Therefore, transformed lymphoma cells are more sensitive to HDAC1,2 inhibition when compared to the untransformed normal B-cells. HDAC1,2 inhibitor causes replication fork collapse in S-phase to trigger DNA damage response, and transformed cancer cells have increased DNA replication when compared to normal B cells. […] In addition to this property, EZH2^GOF DLBCL cells also have increased DNA repair compared to EZH2^WT DLBCL cells (FIG. 34A), which can also be targeted by HDAC1,2 inhibitor as it impairs the HDAC1,2 regulated DNA repair processes used by EZH2^GOF DLBCL cells for their survival.

[5] = test system: SUDHL4 and Karpas-422 cells; experiment: Western blot of γH2AX on chromatin, with or without ionizing radiation; assay type: cell-based, human
Experimental: (§2) The percentage of cells with 6 or greater γH2AX foci were counted in three independent experiments and at least 100 cells were counted in each experiment. […] Histones were purified using trichloroacetic acid extraction protocol (see Example 1). Western blot analysis was done with anti-γH2AX and histone H2AX served as the loading control. […] Following DMSO or ACY957 treatment, cells were exposed to a 5Gy dose of ionizing radiation and allowed to recover for 30 minutes prior to chromatin extraction. Western blot analysis was done with anti-γH2AX where total histone H2AX served as a loading control. (D): Karpas-422 cells were micro-irradiated with laser and allowed to recover for 15 minutes before fixation and immunofluorescence staining with anti-γH2AX, anti-HDAC1 and anti-HDAC2 antibodies was done.

[6] = test system: SUDHL4 and Karpas-422 cells; experiment: γH2AX foci formation by immunofluorescence; assay type: cell-based, human
Experimental: as §2, §1

SUDHL4 cells = experiment: propidium-iodide / BrdU-PI cell cycle analysis; assay type: cell-based, human
Experimental: (B): Quantitation of the cell cycle data in (A), compiled from three independent analyses. The graphs plotted the average percentage of cells in each phase of the cell cycle. […] (C): FACS analysis following BrdU-PI staining of Karpas-422 and SUDHL4 cells was performed following a 48 h or 72 h treatment with ACY-957.
(B): Quantitation of the cell cycle analysis performed in (A). Data from three independent cell cycle analyses were compiled and average percentage cells with standard errors were shown in this panel.
Propidium-iodide Cell Cycle Analysis.
Since these DLBCL cells expressed a hyperactive form of EZH2, pharmacological inhibition of EZH2 activity was considered a therapeutic strategy. […] GSK126 was a S-adenosyl-methionine-competitive inhibitor of EZH2 methyltransferase activity, and DZNep was a S-adenosylhomocysteine hydrolase inhibitor that disrupted the components of the PRC2 complex, thereby causing reduced chromatin-associated EZH2 levels.

Nc1ccc(-c2cccs2)cc1NC(=O)c1ccc2nc(N3CCNCC3)ccc2c1 [ACY-957, N-(2-amino-5-(thiophen-2-yl)phenyl)-2-(piperazin-1-yl)quinoline-6-carboxamide]
global H4K16ac levels ([1]; 2 μM, 48 hr): increased global levels of H4K16ac
global H4K91ac levels ([1]; 2 μM, 48 hr): increased global H4K91ac levels
global monoubiquitinated form of H4 ([1]; 30 h or 48 h, without doxorubicin): no change in global levels of the slow migrating monoubiquitinated form of H4
monoubiquitinated form of H4 after doxorubicin [1]: significant reduction to complete absence of the slow migrating monoubiquitinated form of H4
monoubiquitinated form of H4 after doxorubicin ([1]; listed as ACY957): decrease in the BBAP-mediated H4K91 monoubiquitination
53BP1 foci co-localizing with γH2AX foci (Karpas-422 cells; 4 h post-doxorubicin (50 nM)): decrease in the number of 53BP1 foci
percentage of cells with 53BP1 foci (Karpas-422 cells; 8 h doxorubicin): increased to the level that was observed in the control DMSO-treated cells
percentage of cells with γH2AX foci (Karpas-422 cells; 8 h doxorubicin): even higher percentage of cells with 6-10 and greater than 10 γH2AX foci
DNA damage, quantitation of γH2AX foci [2]: statistically significant increase in DNA damage
H4K5ac in Hdac3-null cells [3]: additive increase in H4K5ac
cell death [4]: did not cause any cell death
chromatin associated γH2AX ([5]; 48 hr, Western): increase in chromatin associated γH2AX
γH2AX levels on chromatin after ionizing radiation ([5]; 48 h treatment, 5Gy, 30 min recovery): Increased γH2AX levels on chromatin
cells with γH2AX foci ([6]; 48 h, 2 μM ACY-957, 0.5 μM DZNEP, 0.5 μM GSK126): significant increase in the number of cells with greater than six γH2AX foci
γH2AX foci by immunofluorescence ([6]; EZH2GOF DLBCL cells): increase in γH2AX
progression through the cell cycle (SUDHL4 cells; 24 h, 2 μM ACY-957, 0.5 μM DZNEP, 0.5 μM GSK126): did not affect their progression through the cell cycle
cell cycle / G1 arrest (SUDHL4 cells; 48 h, 2 μM ACY-957, 0.5 μM GSK126): accumulation of SUDHL4 cells in G1 phase (G1 arrest)
S-phase population, BrdU-PI FACS (SUDHL4 cells; 48 h and 72 h, accompanied by G1 arrest): decrease in S-phase population
cell cycle / G1 arrest and sub-G1 (SUDHL4 cells; 72 h, 2 μM ACY-957, 0.5 μM DZNEP, 0.5 μM GSK126): greater number of cells arrested in G1 phase; also recorded: cell cycle arrest at G1 phase in SUDHL4 cells
